We go through 16 compounds from article PMC3410885, “6-Arylpyrido[2,3-d]pyrimidines as Novel ATP-Competitive Inhibitors of Bacterial D-Alanine:D-Alanine Ligase” (PLoS ONE, 2012).

One series has as its system E. coli 1411. The series is described as follows: MIC by broth microdilution, E. coli 1411. In kind it is cell-based. To be noted: for MIC: Escherichia coli, 1411, read-out: MIC 1411; for MIC 1411 +PMBN: with polymyxin B nonapeptide (4 μg/ml). As to the method: (§1) Selected DdlB inhibitors were tested for their antibacterial activity against two E. coli strains E. coli 1411 and E. coli AB734 (Table 2). […] Additionally, growth inhibition of efflux pump-deficient strains SM1411 (acrAB deficient derivative of 1411) and ES100 (tolC deficient derivative of AB734) was measured, and MICs were repeated for each strain in the presence of polymyxin B nonapeptide (PMBN) to assess the impact of outer-membrane permeability on antimicrobial activity.
(§2) Minimum inhibitory concentrations (MICs) were determined by broth microdilution against E. coli 1411, SM1411 (acrAB deficient derivative of 1411), AB734 and ES100 (tolC deficient derivative of AB734) according to CLSI guidelines. MICs were repeated for each strain in the presence of polymyxin B nonapeptide (4 μg/ml) to assess the impact of outer-membrane permeability on antimicrobial activity.
(Dilution methods test growth across graded concentrations, often in twofold steps.)

For a further series, the target named is T1, E. coli DdlB (Escherichia coli, UniProt P07862).
T1 construct: polyhistidine (His) tag (N); made in house; host or cells: E. coli BL21(λDE3), vector pQE-30 UA (Qiagen)
As to the kind of experiment: Colorimetric malachite green inhibition assay of DdlB. In kind it is biochemical. The settings on record: for IC50: malachite green assay, 700 μM D-Ala, 500 μM ATP, 37°C, 20 min, read-out: inhibitory activity on DdlB: IC50. As to the method: All of the synthesized 6-arylpyrido[2,3-d]pyrimidines 11–36 were assayed for in vitro inhibitory activity on E. coli DdlB by detecting orthophosphate generated during the enzymatic reaction using a Malachite green assay.
Inhibition of DdlB was measured at different inhibitor and ATP concentrations in order to determine Ki values and the mode-of-action of both compounds.
The target compounds were tested for their ability to inhibit the D-Ala-adding activity of DdlB ligase with the colorimetric malachite green method in which orthophosphate generated during the reaction is measured. Each compound was tested in duplicate at 100, 250 or 500 μM in a mixture, final volume 50 μL, containing 50 mM Hepes (pH 8.0), 5 mM MgCl2, 10 mM (NH4)2SO4, 10 mM KCl, 700 μM D-Ala, 500 μM ATP, purified His-tagged DdlB (diluted in 50 mM Hepes (pH 7.2) and 1 mM DTT) and the test compound dissolved in DMSO. The final concentration of DMSO was 5% (v/v). The reaction mixture was incubated at 37°C for 20 min, then quenched with 100 μL of Biomol reagent and absorbance at 650 nm was measured after 5 min. To exclude possible promiscuous inhibitors, all compounds were tested in the presence of Triton-114 (0.005%). Residual activities were calculated relative to control assays without the compounds and with DMSO.

Series [1] has as its system ES100 (tolC deficient derivative of AB734). The series is described as follows: MIC by broth microdilution, ES100. In kind it is cell-based, E. coli. The settings on record: for MIC: Escherichia coli, read-out: MIC ES100 (tolC); for MIC ES100 +PMBN: with polymyxin B nonapeptide (4 μg/ml). How it is done:
as §1, §2

A further series deals with E. coli AB734. As to the kind of experiment: MIC by broth microdilution, E. coli AB734. To be noted: for MIC: Escherichia coli, AB734, read-out: MIC AB734; for MIC AB734 +PMBN: with polymyxin B nonapeptide (4 μg/ml). In kind it is cell-based. As to the method: as §1, §2
Series [2] has as its system SM1411 (acrAB deficient derivative of 1411). As to the kind of experiment: MIC by broth microdilution, SM1411. In kind it is cell-based, E. coli. The settings on record: for MIC: Escherichia coli, read-out: MIC SM1411 (acrAB); for MIC SM1411 +PMBN: with polymyxin B nonapeptide (4 μg/ml). How it is done:
as §1, §2

The test system of series [3] is E. coli strains (1411, AB734, SM1411, ES100). As to the kind of experiment: Antibacterial activity stated for the E. coli strains together. In kind it is cell-based. The settings on record: for antibacterial activity (in words): efflux-deficient, permeabilised cells. As to the method:
as §1, §2

≈ marks a conversion by molar mass, not a printed value. Some results are limits rather than exact numbers.

Broadly, the IC50 is the concentration at which inhibition is half-maximal. As to `COc1cc(OC)cc(-c2cc3cnc(N)nc3nc2N)c1` [Compound 13, 6-(3,5-dimethoxyphenyl)pyrido[2,3-d]pyrimidine-2,7-diamine], in the series with E. coli 1411, the MIC is more than 256 µg/mL and the “MIC 1411 +PMBN” value is more than 256 µg/mL. Moreover, the IC50 on E. coli DdlB amounted to 908 µM. Further, in series [1], the MIC is more than 256 µg/mL and the “MIC ES100 +PMBN” value turned out to be 64 µg/mL (≈ 215 µM). In the series with E. coli AB734, the MIC was more than 256 µg/mL and the “MIC AB734 +PMBN” value is more than 256 µg/mL. Besides, in series [2], the MIC was more than 256 µg/mL and the “MIC SM1411 +PMBN” value is 128 µg/mL (≈ 431 µM).

For orientation: melting point means the temperature of the solid-liquid transition. Take `Nc1nc2nc(NCCCN3CCOCC3)ncc2cc1-c1c(Cl)cccc1Cl` [Compound 28, 6-(2,6-dichlorophenyl)-N2-(3-morpholinopropyl)pyrido[2,3-d]pyrimidine-2,7-diamine]: the melting point fell in the range of 124 to 127 °C.

Regarding `CC(C)(C)NC(=O)Nc1nc2nc(N)ncc2cc1-c1c(Br)cccc1Br` [Compound 34, 1-(2-amino-6-(2,6-dibromophenyl)pyrido[2,3-d]pyrimidin-7-yl)-3-tert-butylurea], in the series with E. coli 1411, the MIC is more than 256 µg/mL and the “MIC 1411 +PMBN” value was 32 µg/mL (≈ 64.8 µM). Also, the IC50 on E. coli DdlB is 583 µM. In series [3], the “antibacterial activity (in words)” value is given as “weak antibacterial activity”. In addition, in series [1], the MIC amounted to 4 µg/mL (≈ 8.09 µM) and the “MIC ES100 +PMBN” value is on record as 0,5 μg/ml. Also, in the series on E. coli AB734, the MIC was more than 256 µg/mL and the “MIC AB734 +PMBN” value worked out at 32 µg/mL (≈ 64.8 µM). In series [2], the MIC is more than 256 µg/mL and the “MIC SM1411 +PMBN” value was determined as 4 µg/mL (≈ 8.09 µM).

For the compound `CC(C)(C)NC(=O)Nc1nc2nc(N)ncc2cc1-c1cc(Cl)cc(Cl)c1` [Compound 23, 1-(2-amino-6-(3,5-dichlorophenyl)pyrido[2,3-d]pyrimidin-7-yl)-3-tert-butylurea], the melting point fell in the range of 179 to 182 °C. Moreover, in the series with E. coli 1411, the MIC is more than 256 µg/mL and the “MIC 1411 +PMBN” value is more than 256 µg/mL. The IC50 at E. coli DdlB worked out at 383 µM. In addition, the “antibacterial activity (in words)” value in series [3] is given as “weak antibacterial activity”. In addition, in series [1], the MIC was more than 256 µg/mL and the “MIC ES100 +PMBN” value amounted to 16 µg/mL (≈ 39.5 µM). Moreover, in the series with E. coli AB734, the MIC is more than 256 µg/mL and the “MIC AB734 +PMBN” value was more than 256 µg/mL. Further, in series [2], the MIC is more than 256 µg/mL and the “MIC SM1411 +PMBN” value was 32 µg/mL (≈ 79 µM).

`CC(C)(C)NC(=O)Nc1nc2nc(N)ncc2cc1-c1ccc2c(c1)OCO2` [Compound 36, 1-(2-amino-6-(benzo[d][1,3]dioxol-5-yl)pyrido[2,3-d]pyrimidin-7-yl)-3-tert-butylurea] gave a melting point of more than 300 °C.

For `COc1cc(OC)cc(-c2cc3cnc(NCCCN4CCOCC4)nc3nc2NC(=O)NC(C)(C)C)c1` [Compound 16, 1-tert-butyl-3-(6-(3,5-dimethoxyphenyl)-2-(3-morpholinopropylamino)pyrido[2,3-d]pyrimidin-7-yl)urea], in the series on E. coli 1411, the MIC is more than 256 µg/mL and the “MIC 1411 +PMBN” value was more than 256 µg/mL. The IC50 on E. coli DdlB was found to be 133 µM. For the same compound, the “fold improved IC50 against DdlB compared to lead compound 33” value at E. coli DdlB (ratio of IC50 values, 16 against 33) was 3.4 fold. Further, the “antibacterial activity (in words)” value in series [3] is listed as “weak antibacterial activity”. For the same compound, in series [1], the MIC was more than 256 µg/mL and the “MIC ES100 +PMBN” value was found to be 128 µg/mL (≈ 244 µM). Moreover, in the series on E. coli AB734, the MIC was more than 256 µg/mL and the “MIC AB734 +PMBN” value is more than 256 µg/mL. For the same compound, in series [2], the MIC is more than 256 µg/mL and the “MIC SM1411 +PMBN” value was 128 µg/mL (≈ 244 µM).

`Nc1ncc2cc(-c3cc(C(F)(F)F)cc(C(F)(F)F)c3)c(N)nc2n1` [Compound 18, 6-(3,5-bis(trifluoromethyl)phenyl)pyrido[2,3-d]pyrimidine-2,7-diamine] registered a melting point of more than 300 °C.

`Nc1ncc2cc(-c3cc(Cl)cc(Cl)c3)c(N)nc2n1` [Compound 22, 6-(3,5-dichlorophenyl)pyrido[2,3-d]pyrimidine-2,7-diamine] had a melting point of more than 300 °C. Further, in series [3] (Escherichia coli, read-out: MICs against all strains), the MIC is more than 256 µg/mL.

`CC(C)(C)NC(=O)Nc1nc2nc(N)ncc2cc1-c1cc(C(F)(F)F)cc(C(F)(F)F)c1` [Compound 19, 1-(2-amino-6-(3,5-bis(trifluoromethyl)phenyl)pyrido[2,3-d]pyrimidin-7-yl)-3-tert-butylurea]: in the series on E. coli 1411, the MIC was more than 256 µg/mL and the “MIC 1411 +PMBN” value is more than 256 µg/mL. On E. coli DdlB, the IC50 came out at 260 µM. Also, the “antibacterial activity (in words)” value in series [3] is recorded as “weak antibacterial activity”. Further, in series [1], the MIC was more than 256 µg/mL and the “MIC ES100 +PMBN” value was determined as 64 µg/mL (≈ 135 µM). In the series on E. coli AB734, the MIC is more than 256 µg/mL and the “MIC AB734 +PMBN” value was more than 256 µg/mL. In series [2], the MIC is more than 256 µg/mL and the “MIC SM1411 +PMBN” value is more than 256 µg/mL.

On to `Nc1ncc2cc(-c3c(Cl)cccc3Cl)c(N)nc2n1` [Compound 26, 6-(2,6-dichlorophenyl)pyrido[2,3-d]pyrimidine-2,7-diamine], for which, on E. coli DdlB, the IC50 came out at 529 µM. Also, in series [1], the MIC was found to be 1 µg/mL (≈ 3.27 µM) and the “MIC ES100 +PMBN” value was 0,25 μg/ml. In addition, in series [2], the MIC worked out at 2 µg/mL (≈ 6.53 µM) and the “MIC SM1411 +PMBN” value is recorded as 0,5 μg/ml.

Compound `CN(C)CCCNc1ncc2cc(-c3c(Cl)cccc3Cl)c(N)nc2n1` [Compound 30, 6-(2,6-dichlorophenyl)-N2-(3-(dimethylamino)propyl)pyrido[2,3-d]pyrimidine-2,7-diamine] registered a melting point of 241 to 244 °C.

For the compound `Nc1ncc2cc(-c3c(F)cccc3Cl)c(N)nc2n1` [Compound 31, 6-(2-chloro-6-fluorophenyl)pyrido[2,3-d]pyrimidine-2,7-diamine], the melting point is more than 300 °C.

`Nc1ncc2cc(-c3cc(F)cc(F)c3)c(N)nc2n1` [Compound 20, 6-(3,5-difluorophenyl)pyrido[2,3-d]pyrimidine-2,7-diamine] registered a melting point of more than 300 °C.

`COc1cc(OC)cc(-c2cc3cnc(NCCCN4CCOCC4)nc3nc2N)c1` [Compound 15, 6-(3,5-dimethoxyphenyl)-N2-(3-morpholinopropyl)pyrido[2,3-d]pyrimidine-2,7-diamine] had a melting point of 146 to 148 °C.

In turn, `CC(C)(C)NC(=O)Nc1nc2nc(N)ncc2cc1-c1c(F)cccc1Cl` [Compound 32, 1-(2-amino-6-(2-chloro-6-fluorophenyl)pyrido[2,3-d]pyrimidin-7-yl)-3-tert-butylurea] showed a melting point of more than 300 °C.

Compound `COc1cc(OC)cc(-c2cc3cnc(NCCCN(C)C)nc3nc2N)c1` [Compound 17, 6-(3,5-dimethoxyphenyl)-N2-(3-(dimethylamino)propyl)pyrido[2,3-d]pyrimidine-2,7-diamine] showed a melting point of 92 to 95 °C.
